Calls of active or inactive are those of the source. No cut-off for these calls is given here.
Key:
NCI-H1650 [1] = test: Inhibition of EGFR mutant-mediated AKT phosphorylation in human NCI-H1650 cells harboring EGFR-mutant at 30 and 60 uM measured after 24 hrs by immunoblotting analysis; type: cell-based
NCI-H1975 [2] = test: Antiproliferative activity against human NCI-H1975 cells harboring EGFR-mutant assessed as cell viability measured after 24 hrs; type: functional, cell-based
NCI-H1650 [3] = test: Antiproliferative activity against human NCI-H1650 cells harboring EGFR-mutant assessed as cell viability measured after 24 hrs; type: functional, cell-based
A549 [4] = test: Antiproliferative activity against human A549 cells harboring wild-type EGFR assessed as cell viability at 30 and 60 uM measured after 24 hrs; type: functional, cell-based
NCI-H460 [5] = test: Antiproliferative activity against human NCI-H460 cells harboring wild-type EGFR assessed as cell viability at 30 and 60 uM measured after 24 hrs; type: functional, cell-based
NCI-H1975 [6] = test: Induction of apoptosis in human NCI-H1975 harboring EGFR-mutant cells assessed as cell death measured after 24 hrs by Annexin-V/PI staining based analysis; type: functional
NCI-H1650 [7] = test: Induction of apoptosis in human NCI-H1650 cells harboring EGFR-mutant assessed as cell death measured after 24 hrs by Annexin-V/PI staining based analysis; type: functional
A549 [8] = test: Induction of apoptosis in human A549 cells harboring wild-type EGFR assessed as cell death at 30 and 60 uM measured after 24 hrs by Annexin-V/PI staining based analysis; type: functional
NCI-H460 [9] = test: Induction of apoptosis in human NCI-H460 cells harboring wild-type EGFR assessed as cell death at 30 and 60 uM measured after 24 hrs by Annexin-V/PI staining based analysis; type: functional
NCI-H1975 [10] = test: Increase in cleaved caspase3 level in human NCI-H1975 cells harboring EGFR-mutant at 30 and 60 uM by immunoblotting analysis; type: functional, cell-based
NCI-H1650 [11] = test: Increase in cleaved caspase3 level in human NCI-H1650 cells harboring EGFR-mutant at 30 and 60 uM by immunoblotting analysis; type: functional, cell-based
A549 [12] = test: Increase in cleaved caspase3 level in human A549 cells harboring wild-type EGFR at 30 and 60 uM by immunoblotting analysis; type: functional, cell-based
NCI-H460 [13] = test: Increase in cleaved caspase3 level in human NCI-H460 cells harboring wild-type EGFR at 30 and 60 uM by immunoblotting analysis; type: functional, cell-based
NCI-H1975 [14] = test: Increase in PARP level in human NCI-H1975 cells harboring EGFR-mutant at 30 and 60 uM by immunoblotting analysis; type: functional, cell-based
NCI-H1650 [15] = test: Increase in PARP level in human NCI-H1650 cells harboring EGFR-mutant at 30 and 60 uM by immunoblotting analysis; type: functional, cell-based
A549 [16] = test: Increase in PARP level in human A549 cells harboring wild-type EGFR at 30 and 60 uM by immunoblotting analysis; type: functional, cell-based
NCI-H460 [17] = test: Increase in PARP level in human NCI-H460 cells harboring wild-type EGFR at 30 and 60 uM by immunoblotting analysis; type: functional, cell-based
NCI-H1975 [18] = test: Effect on ROS level in human NCI-H1975 cells harboring EGFR-mutant at 60 uM; type: functional, cell-based
NCI-H1650 [19] = test: Effect on ROS level in human NCI-H1650 cells harboring EGFR-mutant at 60 uM; type: functional, cell-based
NCI-H1975 [20] = test: Induction of apoptosis in human NCI-H1975 cells harboring EGFR-mutant assessed as cell death at 60 uM in presence of NAC; type: functional, cell-based
NCI-H1650 [21] = test: Induction of apoptosis in human NCI-H1650 cells harboring EGFR-mutant assessed as cell death at 60 uM in presence of NAC; type: functional, cell-based
NCI-H1975 [22] = test: Decrease in EGFR level in human NCI-H1975 cells harboring EGFR-mutant measured after 24 hrs by immunoblotting analysis; type: functional, cell-based
NCI-H1975 [23] = test: Inhibition of EGFR mutant-mediated AKT phosphorylation in human NCI-H1975 cells harboring EGFR-mutant at 30 and 60 uM measured after 24 hrs by immunoblotting analysis; type: cell-based
NCI-H1975 [24] = test: Inhibition of EGFR mutant-mediated ERK phosphorylation in human NCI-H1975 cells harboring EGFR-mutant at 30 and 60 uM measured after 24 hrs by immunoblotting analysis; type: cell-based
NCI-H1650 [25] = test: Decrease in EGFR level in human NCI-H1650 cells harboring EGFR-mutant at 30 and 60 uM by […]; type: functional, cell-based
NCI-H1650 [26] = test: Inhibition of EGFR mutant-mediated ERK phosphorylation in human NCI-H1650 cells harboring EGFR-mutant measured after 24 hrs by immunoblotting analysis; type: cell-based
A549 [27] = test: Decrease in EGFR level in human A549 cells harboring wild-type EGFR at 30 and 60 uM measured after 24 hrs by immunoblotting analysis; type: functional, cell-based
[28] = biological target: Epidermal growth factor receptor (Homo sapiens) (UniProt P00533); test: Inhibition of EGFR-mediated AKT phosphorylation in human A549 cells harboring wild-type EGFR at 30 and 60 uM measured after 24 hrs by immunoblotting analysis; type: cell-based
[29] = biological target: Epidermal growth factor receptor (Homo sapiens) (UniProt P00533); test: Inhibition of EGFR-mediated ERK phosphorylation in human A549 cells harboring wild-type EGFR at 30 and 60 uM measured after 24 hrs by immunoblotting analysis; type: cell-based
NCI-H460 [30] = test: Decrease in EGFR level in human NCI-H460 cells harboring wild-type EGFR at 30 and 60 uM measured after 24 hrs by immunoblotting analysis; type: functional, cell-based
[31] = biological target: Epidermal growth factor receptor (Homo sapiens) (UniProt P00533); test: Inhibition of EGFR-mediated AKT phosphorylation in human NCI-H460 cells harboring wild-type EGFR at 30 and 60 uM measured after 24 hrs by immunoblotting analysis; type: cell-based
[32] = biological target: Epidermal growth factor receptor (Homo sapiens) (UniProt P00533); test: Inhibition of EGFR-mediated ERK phosphorylation in human NCI-H460 cells harboring wild-type EGFR at 30 and 60 uM measured after 24 hrs by immunoblotting analysis; type: cell-based
NCI-H1975 [33] = test: Effect on EGFR mRNA levels in human NCI-H1975 cells harboring EGFR-mutant at 30 uM by quantitative RT-PCR method; type: functional, cell-based
NCI-H1975 [34] = test: Induction of EGFR turnover in human NCI-H1975 cells harboring EGFR-mutant at 60 uM measured after 24 hrs in presence of proteosome inhibitor bortezomib by immunoblotting analysis; type: functional, cell-based
PC-9 [35] = test: Antiproliferative activity against human gefitinib-resistant PC9 cells harboring EGFR T790M mutant assessed as cell viability measured after 24 hrs; type: functional, cell-based
PC-9 [36] = test: Antiproliferative activity against human erlotinib-resistant PC9 cells harboring EGFR T790M mutant assessed as cell viability measured after 24 hrs; type: functional, cell-based
PC-9 [37] = test: Induction of apoptosis in human gefitinib-resistant PC9 cells harboring EGFR T790M mutant assessed as cell death at 30 and 60 uM measured after 24 hrs by Annexin-V/PI staining based analysis; type: functional
PC-9 [38] = test: Induction of apoptosis in human erlotinib-resistant PC9 cells harboring EGFR T790M mutant assessed as cell death at 30 and 60 uM measured after 24 hrs by Annexin-V/PI staining based analysis; type: functional
PC-9 [39] = test: Decrease in EGFR level in human gefitinib-resistant PC9 cells harboring EGFR T790M mutant at 30 and 60 uM measured after 24 hrs by immunoblotting analysis; type: functional, cell-based
PC-9 [40] = test: Decrease in EGFR level in human erlotinib-resistant PC9 cells harboring EGFR T790M mutant at 30 and 60 uM measured after 24 hrs by immunoblotting analysis; type: functional, cell-based
PC-9 [41] = test: Increase in cleaved caspase3 level in human gefitinib-resistant PC9 cells harboring EGFR T790M mutant at 30 and 60 uM by immunoblotting analysis; type: functional, cell-based
PC-9 [42] = test: Increase in cleaved caspase3 level in human erlotinib-resistant PC9 cells harboring EGFR T790M mutant at 30 and 60 uM by immunoblotting analysis; type: functional, cell-based
PC-9 [43] = test: Increase in PARP level in human gefitinib-resistant PC9 cells harboring EGFR T790M mutant at 30 and 60 uM by immunoblotting analysis; type: functional, cell-based
PC-9 [44] = test: Increase in PARP level in human erlotinib-resistant PC9 cells harboring EGFR T790M mutant at 30 and 60 uM by immunoblotting analysis; type: functional, cell-based
NCI-H1975 [45] = test: Induction of EGFR turnover in human NCI-H1975 cells harboring EGFR-mutant assessed as receptor half life […] at 60 uM in presence of cycloheximide by immunoblotting analysis; type: functional, cell-based

Chain of Epidermal growth factor receptor (Homo sapiens) (P00533 whole entry): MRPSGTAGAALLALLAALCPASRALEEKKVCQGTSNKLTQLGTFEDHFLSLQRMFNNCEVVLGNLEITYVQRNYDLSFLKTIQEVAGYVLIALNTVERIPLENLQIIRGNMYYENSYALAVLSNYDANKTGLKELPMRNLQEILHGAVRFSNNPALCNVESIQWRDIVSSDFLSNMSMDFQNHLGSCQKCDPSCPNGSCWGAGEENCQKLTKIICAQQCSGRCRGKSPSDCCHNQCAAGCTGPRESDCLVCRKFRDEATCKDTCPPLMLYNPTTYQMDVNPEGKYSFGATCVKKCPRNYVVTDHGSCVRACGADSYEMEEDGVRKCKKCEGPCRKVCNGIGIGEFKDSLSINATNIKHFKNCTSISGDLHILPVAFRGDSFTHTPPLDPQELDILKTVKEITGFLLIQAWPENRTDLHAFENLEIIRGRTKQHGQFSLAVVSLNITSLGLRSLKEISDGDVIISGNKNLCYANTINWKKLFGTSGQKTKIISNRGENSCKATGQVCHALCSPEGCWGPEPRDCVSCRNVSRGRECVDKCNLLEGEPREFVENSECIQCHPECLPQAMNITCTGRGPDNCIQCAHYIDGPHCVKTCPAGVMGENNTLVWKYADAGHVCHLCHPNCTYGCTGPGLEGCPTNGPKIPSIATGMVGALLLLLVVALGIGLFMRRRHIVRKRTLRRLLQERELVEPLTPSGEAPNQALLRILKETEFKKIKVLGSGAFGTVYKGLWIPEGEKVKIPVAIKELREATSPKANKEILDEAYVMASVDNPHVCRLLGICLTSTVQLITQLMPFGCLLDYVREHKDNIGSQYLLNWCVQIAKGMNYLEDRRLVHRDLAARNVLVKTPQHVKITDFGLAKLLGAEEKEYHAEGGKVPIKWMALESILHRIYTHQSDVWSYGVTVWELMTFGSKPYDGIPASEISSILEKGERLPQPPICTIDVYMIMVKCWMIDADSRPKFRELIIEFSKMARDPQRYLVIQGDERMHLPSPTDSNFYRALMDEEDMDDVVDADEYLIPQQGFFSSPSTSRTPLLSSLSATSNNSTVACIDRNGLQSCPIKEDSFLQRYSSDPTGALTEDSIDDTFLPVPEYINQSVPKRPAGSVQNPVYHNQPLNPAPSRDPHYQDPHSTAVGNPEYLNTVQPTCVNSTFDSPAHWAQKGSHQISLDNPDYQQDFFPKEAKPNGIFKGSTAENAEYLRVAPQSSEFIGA

SMILES: O=C(O)c1cc(O)c(O)c(O)c1
- inhibition (NCI-H1650 [1]): Active
- Activity (NCI-H1975 [2]): Dose-dependent effect
- Activity (NCI-H1650 [3]): Dose-dependent effect
- Activity (A549 [4]): inactive
- Activity (NCI-H460 [5]): inactive
- Activity (NCI-H1975 [6]): Dose-dependent effect
- Activity (NCI-H1650 [7]): Dose-dependent effect
- Activity (A549 [8]): Active
- Activity (NCI-H460 [9]): Active
- Activity (NCI-H1975 [10]): Active
- Activity (NCI-H1650 [11]): Active
- Activity (A549 [12]): inactive
- Activity (NCI-H460 [13]): inactive
- Activity (NCI-H1975 [14]): Active
- Activity (NCI-H1650 [15]): Active
- Activity (A549 [16]): inactive
- Activity (NCI-H460 [17]): inactive
- Activity (NCI-H1975 [18]): inactive
- Activity (NCI-H1650 [19]): inactive
- Activity (NCI-H1975 [20]): Active
- Activity (NCI-H1650 [21]): Active
- inhibition (NCI-H1975 [22]): Dose-dependent effect
- inhibition (NCI-H1975 [23]): Active
- inhibition (NCI-H1975 [24]): Active
- inhibition (NCI-H1650 [25]): Dose-dependent effect
- inhibition (NCI-H1650 [26]): Active
- inhibition (A549 [27]): inactive
- inhibition [28]: inactive
- inhibition [29]: inactive
- inhibition (NCI-H460 [30]): inactive
- inhibition [31]: inactive
- inhibition [32]: inactive
- Activity (NCI-H1975 [33]): inactive
- Activity (NCI-H1975 [34]): inactive
- Activity (PC-9 [35]): Dose-dependent effect
- Activity (PC-9 [36]): Dose-dependent effect
- Activity (PC-9 [37]): Active
- Activity (PC-9 [38]): Active
- Activity (PC-9 [39]): Active
- Activity (PC-9 [40]): Active
- Activity (PC-9 [41]): Active
- Activity (PC-9 [42]): Active
- Activity (PC-9 [43]): Active
- Activity (PC-9 [44]): Active
- Activity (NCI-H1975 [45]): inactive
